Legend:
[1] = system: EBV-positive B lymphoma cell line P3HR1; assay: Drug sensitivity assay: HDAC inhibitor plus ganciclovir, viable cell count by trypan blue; format: cell-based, human; details: both combined with ganciclovir; living cells counted on day 6
Description: To determine tumor cytotoxic activity of the combination of HDACi and GCV, EBV+ lymphoma cells were exposed to a range of concentrations of sodium butyrate or chidamide […] for 3 days and then to GCV alone for another 3 days (FIG. 1C). Efficacy of either sodium butyrate or chidamide in the combination treatment approach was then determined by enumerating living cells. A general experimental protocol is described below.
(§1) The EBV-positive B lymphoma cell line P3HR1 was used in the study. The P3HR1 cell line was originally derived from Burkitt's lymphoma patient. EBV maintains a latent state of replication in this cell line. These cells were maintained in RPMI 1640 with 10% fetal bovine serum containing 100 U penicillin per ml and 100 μg streptomycin per ml.
To test the sensitivity of EBV-positive lymphoma cells towards chidamide, P3HR1 cells were treated with chidamide in the presence of one anti-viral drug. At the end of the assay, the efficacy of chidamide was assessed by measuring the inhibition of cell growth compared to untreated cells.
Healthy, actively-growing P3HR1 cells were harvested and resuspended in fresh growth media. Cells were seeded in wells. […] On day 6, cell morphology was observed under a microscope and viable cell counts in each individual well was determined by the trypan blue dye exclusion method using an automated cell counter (Countess, Invitrogen).

[2] = system: BGLF4 (EBV-PK) transcript in P3HR1 cells; assay: Protein kinase (BGLF4) mRNA expression assay, quantitative real-time RT-PCR; format: cell-based, human; details: 24 hrs exposure, mRNA by RT-PCR
Description: (§2) To measure whether Chidamide could induce EBV associated transcripts, the induction of mRNA for the protein kinases TK (FIG. 1A) and BGLF4 (FIG. 1B) in EBV-positive lymphoma cell lines was measured after exposure to different concentrations of the short-chain fatty acid, sodium butyrate (NaB), or the benzamide, chidamide (chid), for 24 hrs. Transcripts were quantitated by quantitative real-time RT-PCR.
as §1
(§3) P3HR1 cells were seeded in 60 mm plates containing 3×10^6 cells in 3 ml of fresh growth media. Appropriate concentrations of HDAC inhibitors were added to the plate and cells were incubated in the presence of HDAC inhibitors for 6 h, 24 h, 48 h, or as needed. Cells were harvested by centrifugation and washed once in cold PBS. Total cellular RNA was then extracted. To measure the relative level of TK mRNA in various total RNA preparations, reverse transcription and quantitative PCR using real time PCR analysis were used. […] The relative level of TK expression in a sample was calculated following normalization of β-actin expression level.

[3] = system: viral TK (EBV thymidine kinase) transcript in P3HR1 cells; assay: Thymidine kinase (TK) mRNA expression assay, quantitative real-time RT-PCR; format: cell-based, human; details: 24 hrs exposure, mRNA by RT-PCR
Description: as §2, §1, §3

HHV-6 = HHV-6 viral load in patient with post-transplant EBV positive lymphoma; format: in vivo, human; details: one patient; arginine butyrate and daily ganciclovir; after 3 weeks of treatment; before treatment (Week 1) 658,882
Description: (§4) Levels were determined before treatment (week1) and after 3 weeks of treatment (week 3).

EBV = EBV viral load in patient with post-transplant EBV positive lymphoma; format: in vivo, human; details: one patient; arginine butyrate and daily ganciclovir; after 3 weeks of treatment; before treatment (Week 1) 27,782
Description: as §4

[4] = system: relapsed or refractory EBV-positive lymphoid tumors; details: arginine butyrate and GCV; of 15 patients; cited from earlier work
CMV = CMV viral load in patient with post-transplant EBV positive lymphoma; format: in vivo, human; details: one patient; arginine butyrate and daily ganciclovir; after 3 weeks of treatment; before treatment (Week 1) 12,300
Description: as §4

Row | Compound | concentration of chidamide as good in killing as 1.0 mM sodium butyrate [1] | concentration at which induction of BGLF4 expression begins [2] | concentration at which induction of viral TK expression begins [3] | HHV-6 viral load, Week 3 (HHV-6) | EBV viral load, Week 3 (EBV) | patients who achieved complete tumor remissions [4] | patients who achieved partial tumor remissions [4] | CMV viral load, Week 3 (CMV)
1 | Nc1cc(F)ccc1NC(=O)c1ccc(CNC(=O)/C=C/c2cccnc2)cc1 [chidamide] | 104 | 500 nM | 500 nM | – | – | – | – | –
2 | arginine butyrate | – | – | – | 805 Copies per mL | 1,486 Copies per mL | 4 patients | 6 patients | 1,600 Copies per mL

Source: patent US20210046061A1, “METHODS AND COMPOSITIONS FOR TREATING HERPESVIRUS INDUCED CONDITIONS” (TRUSTEES OF BOSTON UNIVERSITY, priority 2015, published 2021)
